Source: patent US10500222B2, “Compositions and methods relating to treatment of infection” (Wayne State University, priority 2015, dated 2019)
Values after ≈ are worked out from the molar mass of the structure shown. “Also recorded” adds a separate entry of the source.

Columns and labels:
P. aeruginosa ATCC 19660 = assay: Bacterial growth and Minimum Inhibitory Concentration (MIC), strain 19660; assay type: cell-based, Pseudomonas aeruginosa; settings: for absorbance values of bacterial cultures: vs growth control
[1] = tested on: mRNA levels in P. aeruginosa KEI 1025 infected cornea; assay: Real time RT-PCR of cornea, KEI 1025 infection; assay type: in vivo, C57BL/6 (B6) mice
Protocol: (§1) The left eyes of B6 mice (n=5/group/time) were injected with 5 μl of 2 μg/μl glycyrrhizin (GLY) (Sigma-Aldrich, St. Louis, Mo.) or PBS (control) subconjunctivally, one day before infection. Similar treatment was done using carbenoxolone (CBX) (Sigma-Aldrich, St. Louis, Mo.). All mice were injected intraperitoneally (IP) at 1 and 3 days p.i. with 100 μl of GLY (2 μg/μl) or CBX (1 μg/μl). PBS served as control for all these experiments. In a separate similar experiment mice were treated one day before infection with GLY subconjunctivally and injected intraperitoneally (i.p.) with GLY plus recombinant (r) HMGB1 (1 μg/100 μl) or GLY plus PBS. IP injections were similarly given at 1 and 3 days p.i. In an additional experiment, KEI 1025 infected B6 mice were treated with 5 μl of 2 μg/μl GLY subconjunctivally at 6 hours p.i. and injected intraperitoneally at 1 and 3 days p.i. with 100 μl of GLY (2 μg/μl).
(§2) KEI 1025 or ATCC strain 19660 infected GLY or PBS treated mice were sacrificed at 5 days p.i. and the normal, contralateral (uninfected) and infected cornea was harvested. For each cornea, total RNA was isolated (RNA STAT-60™; Tel-Test, Friendswood, Tex.) according to the manufacturer's instructions. Upon spectrophotometric quantification at 260 nm, 1 μg of each RNA sample was reverse transcribed using Moloney-murine leukemia virus (M-MLV) reverse transcriptase (Invitrogen, Carlsbad, Calif.) to produce a cDNA template for the PCR reaction. cDNA products were diluted 1:25 with diethylpyrocarbonate (DEPC)-treated water. A 2 μl aliquot of diluted cDNA was used for the real-time RT-PCR reaction with Real-Time SYBR® Green/Fluorescein PCR Master Mix (Bio-Rad) and primer concentrations of 10 μM (total 10 μl reaction volume). After a pre-programmed hot start cycle (3 min at 95° C.), the parameters used for PCR amplification were: 15 sec at 95° C. and 60 sec at 60° C. with the cycles repeated 45 times. Optimal conditions for PCR amplification of cDNA were established using routine methods. mRNA levels of HMGB1, RAGE, IL-1β, TLR2, TLR4, CXCL2, TNF-α, NLR family pyrin domain containing 3 (NLRP3), NLR family CARD domain containing 4 (NLRC4), IL-12, TGF-β, IL-10, single Ig IL-1-related receptor (SIGIRR) and interleukin 1 receptor-like 1 (ST2) were tested by real-time RT-PCR (CFX Connect™ Real-Time PCR Detection System; Bio-Rad, Richmond, Calif.). The fold differences in gene expression were calculated after normalization to β-actin and expressed as the relative mRNA concentration+SEM.

[2] = tested on: neutrophils in the cornea, P. aeruginosa KEI 1025; assay: Myeloperoxidase (MPO) assay, KEI 1025 infection; assay type: in vivo, C57BL/6 (B6) mice; settings: pretreatment subconj. + IP, vs PBS
Protocol: as §1
(§3) This assay was used to quantitate neutrophils in the cornea of GLY and PBS treated mice (n=5/group/time) infected with KEI 1025 or ATCC strain 19660. Individual corneas were removed at 3 and 5 days p.i. and homogenized in 1.0 ml of 50 mM phosphate buffer (pH 6.0) containing 0.5% HTAB. […] The change in absorbency was monitored at 460 nm for 5 min at 30 sec intervals. The slope of the line was determined for each sample and used to calculate units of MPO/cornea. […]

P. aeruginosa KEI 1025 = assay: Quantification of viable bacteria (plate count), KEI 1025 infection; assay type: in vivo, C57BL/6 (B6) mice; settings: vs PBS; for bacterial load (plate count): post treatment: subconj. 6 hours p.i. + IP 1 and 3 days p.i.; for bacterial load in the corneas (plate count): pretreatment subconj. + IP
Protocol: as §1
Mice were sacrificed at 3 and 5 days p.i. and KEI 1025 or ATCC strain 19660 infected corneas from GLY, CBX or PBS (or GLY+/−rHMGB1) treated B6 mice were harvested (n=5/group/time). Each cornea was homogenized in 1 ml of sterile saline (0.85% NaCl, pH 7.4) containing 0.25% BSA. A 100 μl of the corneal homogenate was serially diluted (1:10) in sterile saline containing 0.25% BSA. Selected dilutions were plated in triplicate on selective culture medium (Difco™ Pseudomonas Isolation Agar, BD Biosciences, Inc., Franklin Lakes, N.J.). Plates were incubated overnight at 37° C. and viable bacteria manually counted. Results are reported as log10 CFU/cornea±SEM.

[3] = tested on: mRNA levels in P. aeruginosa ATCC strain 19660 infected cornea; assay: Real time RT-PCR of cornea, strain 19660 infection; assay type: in vivo, C57BL/6 (B6) mice; settings: vs PBS
Protocol: as §1, §2

[4] = tested on: neutrophils in the cornea, P. aeruginosa ATCC strain 19660; assay: Myeloperoxidase (MPO) assay, strain 19660 infection; assay type: in vivo, C57BL/6 (B6) mice; settings: vs PBS
Protocol: as §1, §3

[5] = KEI 1025, pretreatment subconj. + IP, infected cornea 5 days p.i., vs PBS

**Q.** With `CC1(C)[C@@H](O[C@H]2O[C@H](C(=O)O)[C@@H](O)[C@H](O)[C@H]2O[C@@H]2O[C@H](C(=O)O)[C@@H](O)[C@H](O)[C@H]2O)CC[C@]2(C)[C@H]3C(=O)C=C4[C@@H]5C[C@@](C)(C(=O)O)CC[C@]5(C)CC[C@@]4(C)[C@]3(C)CC[C@@H]12` [GLY, glycyrrhizin] as the compound, how does the MIC50 (P. aeruginosa ATCC 19660; Pseudomonas aeruginosa, ATCC19660, strain 19660, 50% decrease in absorbance at 540 nm, 37° C., 18 h) read?
**A.** The MIC50 was 20 mg/mL (≈ 24.3 mM).

**Q.** And the MIC90 (P. aeruginosa ATCC 19660; Pseudomonas aeruginosa, ATCC19660, strain 19660, 90% decrease in absorbance at 540 nm, 37° C., 18 h)?
**A.** Its MIC90 is 40 mg/mL (≈ 48.6 mM).

**Q.** What about the “Minimum Inhibitory Concentration 50 (MIC50)” value (P. aeruginosa ATCC 19660; cytotoxic strains) of the same compound?
**A.** The value was 20 milligrams/milliliter.

**Q.** What about the “absorbance values of bacterial cultures” value (P. aeruginosa ATCC 19660; strain 19660, grown with 10 mg/ml GLY) of the same compound?
**A.** Its value is “significantly reduced”.

**Q.** What about the “absorbance values of bacterial cultures” value (P. aeruginosa ATCC 19660; strain 19660, grown with 20 mg/ml GLY) of the same compound?
**A.** The value was “significantly reduced”.

**Q.** And the “absorbance values of bacterial cultures” value (P. aeruginosa ATCC 19660; strain 19660, grown with 40 mg/ml GLY)?
**A.** The value was “significantly reduced”.

**Q.** What about the “CXCL2 mRNA levels” value [1, 5] of the same compound?
**A.** The value was “reduced”.

**Q.** What about the “HMGB1 mRNA levels” value [1, 5] of the same compound?
**A.** Its value is “significantly reduced; also recorded: significantly decreased”.

**Q.** And the “IL-1β mRNA levels” value [1, 5]?
**A.** The value was “significantly reduced”.

**Q.** What about the “IL-10 mRNA levels” value [1, 5] of the same compound?
**A.** The value was “reduced”.

**Q.** And the “IL-12 mRNA levels” value [1, 5]?
**A.** Its value is “only GLY reduced”.

**Q.** What about the “NLRC4 mRNA levels” value [1, 5] of the same compound?
**A.** The value was “only GLY reduced”.

**Q.** And the “NLRP3 mRNA levels” value [1, 5]?
**A.** The value was “reduced”.

**Q.** And the “RAGE mRNA levels” value [1, 5]?
**A.** The value was “reduced RAGE mRNA levels (FIG. 2B) when compared with PBS but not significantly”.

**Q.** And the “ST2 mRNA levels” value [1, 5]?
**A.** The value was “reduced”.

**Q.** And the “TGF-β mRNA levels” value [1, 5]?
**A.** The value was “reduced”.

**Q.** And the “TLR2 mRNA levels” value [1, 5]?
**A.** Its value is “significantly reduced”.

**Q.** What about the “TLR4 mRNA” value [1, 5] of the same compound?
**A.** Its value is “reduced”.

**Q.** And the “TNF-α mRNA levels” value [1, 5]?
**A.** Its value is “reduced by both GLY and CBX, but only GLY (p<0.01) was significant”.

**Q.** What about the “mRNA levels of the other molecules tested” value ([1]; normal (uninfected) corneas, among PBS, CBX, GLY groups) of the same compound?
**A.** Its value is “no differences”.

**Q.** And the “RAGE mRNA levels” value ([1]; normal (uninfected) corneas, vs PBS)?
**A.** Its value is “significantly reduced”.

**Q.** What about the “neutrophils in cornea (MPO assay)” value ([2]; 3 days p.i.) of the same compound?
**A.** Its value is “decreased neutrophils”.

**Q.** What about the “neutrophils in cornea (MPO assay)” value ([2]; 5 days p.i.) of the same compound?
**A.** The value was “decreased neutrophils”.

**Q.** What about the “bacterial load (plate count)” value (P. aeruginosa KEI 1025; 3 days p.i.) of the same compound?
**A.** The value was “reduced significantly”.

**Q.** What about the “bacterial load (plate count)” value (P. aeruginosa KEI 1025; 5 days p.i.) of the same compound?
**A.** The value was “reduced significantly”.

**Q.** And the “bacterial load in the corneas (plate count)” value (P. aeruginosa KEI 1025; 3 days p.i.)?
**A.** Its value is “reduced”.

**Q.** And the “bacterial load in the corneas (plate count)” value (P. aeruginosa KEI 1025; 5 days p.i.)?
**A.** The value was “reduced”.

**Q.** What about the “mRNA levels of CXCL2” value ([3]; strain 19660, 5 days p.i.) of the same compound?
**A.** Its value is “slightly, but not significantly decreased”.

**Q.** And the “Relative mRNA levels for HMGB1” value ([3]; strain 19660, infected cornea 5 days p.i.)?
**A.** The value was “no different”.

**Q.** What about the “CXCL2 mRNA” value ([3]; strain 19660 experiment, normal cornea) of the same compound?
**A.** Its value is “No differences”.

**Q.** What about the “Relative mRNA levels for HMGB1” value ([3]; strain 19660 experiment, uninfected, normal cornea) of the same compound?
**A.** Its value is “no different”.

**Q.** What about the “neutrophils in the cornea (MPO assay)” value ([4]; 3 days p.i.) of the same compound?
**A.** The value was “significant decrease in neutrophils”.

**Q.** And the “neutrophils in the cornea (MPO assay)” value ([4]; 5 days p.i.)?
**A.** Its value is “significant decrease in neutrophils”.
